Assay results taken from patent US6613317B1, “Volatile attractants for diabrotica species” (priority 1988, dated 2003).
Marks after values point to notes of the source that are not given here.

Columns and labels:
D. barberi [1] = test: Sticky trap attraction in prairie habitat, Trelease Woods (Example 2); assay type: in vivo, Diabrotica barberi; conditions: for Mean number of D. barberi per day (±standard deviation) / Mean number of D. barberi per sticky trap per day (±standard deviation): 100 mg per trap, n = 4
Outline: (§1)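 Lure-dosed cotton wicks (solids in acetone; untreated controls) on TangleTrap-coated cartons atop 1 m posts, four replicates 10 m apart in relict prairie, mid-August over two years. Read-out: mean beetles caught after 24-h; log-transformed ANOVA with Duncan's multiple range test.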

D. cristata = test: as above; assay type: in vivo, Diabrotica cristata; conditions: 100 mg per trap, n = 4
Outline: as §1

D. v. virgifera [2] = test: as above; assay type: in vivo, Diabrotica virgifera virgifera; conditions: 100 mg per trap, n = 4
Outline: as §1

D. u. howardi [3] = test: as above; assay type: in vivo, Diabrotica undecimpunctata howardi; conditions: 100 mg per trap, n = 4
Outline: as §1

D. barberi [4] = test: Sticky trap attraction along hybrid corn, Pomology South Farms (Example 2); assay type: in vivo, Diabrotica barberi; conditions: 100 mg per trap, n = 4
Outline: (§2)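 Lures (>98% purity) dosed at 100 mg per trap on cotton wicks atop TangleTrap-coated 1.0 liter cartons, solids dissolved in acetone; untreated wicks as controls. Four replicates placed 10 m apart on 1 m posts along a 0.8 ha hybrid corn field; mean beetles caught after 24-h, log-transformed ANOVA with Duncan's test.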

D. v. virgifera [5] = test: as above; assay type: in vivo, Diabrotica virgifera virgifera; conditions: 100 mg per trap, n = 4
Outline: as §2

D. u. howardi [6] = test: as above; assay type: in vivo, Diabrotica undecimpunctata howardi; conditions: 100 mg per trap, n = 4
Outline: as §2

[7] = tested on: western corn rootworm (WCR) adults; test: Sticky trap attraction in corn, estragole analogues (Example 3); assay type: in vivo, Diabrotica virgifera virgifera; conditions: 100 mg per trap, n = 4
Outline: (§3)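 Cotton wicks dosed with 100 mg or 100 μL attractant per trap on TangleTrap-coated cartons, four replicates 10 m apart on 1 m posts at field edges of hybrid or sweet corn. Mean beetles caught after ~24 h; log-transformed ANOVA with Duncan's test, P=0.05.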

[8] = tested on: southern corn rootworm (SCR) adults; test: as above; assay type: in vivo, Diabrotica undecimpunctata howardi; conditions: 100 mg per trap, n = 4
Outline: as §3

[9] = tested on: northern corn rootworm (NCR) adults; test: as above; assay type: in vivo, Diabrotica barberi; conditions: 100 mg per trap, n = 4
Outline: as §3

Row | SMILES | Mean number of D. barberi per day (±standard deviation) (D. barberi [1]; August 11, 1987) | Mean number of D. barberi per day (±standard deviation) (D. barberi [1]; August 14, 1987) | activity for D. barberi relative to estragole (D. barberi [1]; prairie, Table 5) [times] | Mean number of D. cristata per day (±standard deviation) (D. cristata; August 11, 1987) | Mean number of D. cristata per day (±standard deviation) (D. cristata; August 14, 1987) | Mean number of D. v. virgifera per day (±standard deviation) (D. v. virgifera [2]; August 11, 1987) | Mean number of D. v. virgifera per day (±standard deviation) (D. v. virgifera [2]; August 14, 1987) | Mean number of D. u. howardi per day (±standard deviation) (D. u. howardi [3]; August 11, 1987) | Mean number of D. u. howardi per day (±standard deviation) (D. u. howardi [3]; August 14, 1987) | Mean number of D. barberi per stick trap per day (±standard deviation) in corn (D. barberi [4]; August 7) | Mean number of D. barberi per stick trap per day (±standard deviation) in corn (D. barberi [4]; August 18) | Mean number of D. v. virgifera per stick trap per day (±standard deviation) in corn (D. v. virgifera [5]; August 7) | Mean number of D. v. virgifera per stick trap per day (±standard deviation) in corn (D. v. virgifera [5]; August 18) | Mean number of D. u. howardi per stick trap per day (±standard deviation) in corn (D. u. howardi [6]; August 7) | Mean number of D. u. howardi per stick trap per day (±standard deviation) in corn (D. u. howardi [6]; August 18) | Mean number of WCR (±standard deviation) per sticky trap after 24 hours ([7]; August 7 (Table 11)) | Mean number of WCR (±standard deviation) per sticky trap after 24 hours ([7]; August 18 (Table 11)) | Mean number of SCR (±standard deviation) per sticky trap after 24 hours ([8]; August 7 (Table 11)) | Mean number of SCR (±standard deviation) per sticky trap after 24 hours ([8]; August 18 (Table 11)) | Mean number of NCR (±standard deviation) per sticky trap after 24 hours ([9]; August 7 (Table 11)) | further results
1 | C=CCc1ccc(O)c(OC)c1 [XXIV, eugenol] | 9.5 ± 8.3^bc per day | 8.3 ± 3.3^c per day | 2 | 39.5 ± 9.4^c per day | 20.0 ± 8.4^cd per day | 0.3 ± 0.5^a per day | 0.0^a per day | 0.0^a per day | 0.0^a per day | 5.8 ± 2.2^b per stick trap per day | 16.3 ± 5.7^b per stick trap per day | 10.0 ± 2.9^a per stick trap per day | 2.8 ± 2.9^a per stick trap per day | 6.3 ± 1.0^a per stick trap per day | 0.0^a per stick trap per day | 10.0 ± 2.9^a per sticky trap | 2.7 ± 2.9^a per sticky trap | 6.2 ± 1.0^a per sticky trap | 0.0^a per sticky trap | 5.7 ± 2.2^b per sticky trap | Mean number of D. barberi per sticky trap per day (±standard deviation) (D. barberi [1]; August 18, first year): 21.8 ± 7.3^b per sticky trap per day; Mean number of D. barberi per sticky trap per day (±standard deviation) (D. barberi [1]; August 20, first year): 22.5 ± 13.2^c per sticky trap per day; Mean number of D. barberi per sticky trap per day (±standard deviation) (D. barberi [1]; August 27, first year): 10.5 ± 4.8^b per sticky trap per day; Mean number of D. cristata per sticky trap per day (±standard deviation) (D. cristata; August 18, first year): 11.5 ± 8.6^b per sticky trap per day; Mean number of D. cristata per sticky trap per day (±standard deviation) (D. cristata; August 20, first year): 15.5 ± 7.9^c per sticky trap per day; Mean number of D. cristata per sticky trap per day (±standard deviation) (D. cristata; August 27, first year): 3.5 ± 3.3^b per sticky trap per day; Mean number of D. v. virgifera per sticky trap per day (±standard deviation) (D. v. virgifera [2]; August 18, first year): 0.3 ± 0.5^a per sticky trap per day; Mean number of D. v. virgifera per sticky trap per day (±standard deviation) (D. v. virgifera [2]; August 20, first year): 0 per sticky trap per day; Mean number of D. v. virgifera per sticky trap per day (±standard deviation) (D. v. virgifera [2]; August 27, first year): 0 per sticky trap per day; Mean number of D. u. howardi per sticky trap per day (±standard deviation) (D. u. howardi [3]; August 18, first year): 0.3 ± 0.5^a per sticky trap per day; Mean number of D. u. howardi per sticky trap per day (±standard deviation) (D. u. howardi [3]; August 20, first year): 0.8 ± 0.5^a per sticky trap per day; Mean number of D. u. howardi per sticky trap per day (±standard deviation) (D. u. howardi [3]; August 27, first year): 0.3 ± 0.5^a per sticky trap per day; Mean number of NCR (±standard deviation) per sticky trap after 24 hours ([9]; August 18 (Table 11)): 16.5 ± 5.7^b per sticky trap
2 | OCC=Cc1ccccc1 [XVIII, cinnamyl alcohol] | 16.5 ± 5.1^c per day | 13.0 ± 12.8^bc per day | 5 | 28.3 ± 5.3^c per day | 20.5 ± 1.3^d per day | 0.0 per day | 0.0^a per day | 0.3 ± 0.5^a per day | 2.8 ± 1.7^b per day | 8.5 ± 6.1^b per stick trap per day | 23.3 ± 5.9^c per stick trap per day | 13.8 ± 10.2^a per stick trap per day | 3.3 ± 2.7^a per stick trap per day | 24.5 ± 13.6^b per stick trap per day | 1.8 ± 1.3^b per stick trap per day | 13.8 ± 10.2^a per sticky trap | 3.3 ± 1.7^a per sticky trap | 24.5 ± 13.6^b per sticky trap | 1.8 ± 1.3^b per sticky trap | 8.5 ± 6.1^b per sticky trap | activity for D. barberi relative to the TIC mixture (D. barberi [1]; prairie, Table 5): ca. 3.5 times; Mean number of WCR per sticky trap after 24 hours ([7]; August 5 (Table 10)): 16.5 ± 1.9^ab per sticky trap; Mean number of SCR per sticky trap after 24 hours ([8]; August 5 (Table 10)): 14.5 ± 9.6^ab per sticky trap; Mean number of NCR per sticky trap after 24 hours ([9]; August 5 (Table 10)): 8.7 ± 4.6^c per sticky trap; Mean number of NCR (±standard deviation) per sticky trap after 24 hours ([9]; August 18 (Table 11)): 23.2 ± 5.9^c per sticky trap
